Key:
[1] = tested on: IL-15 induced P-STAT5 in human PBMC; assay: PBMC IL-15 Induced P-STAT5; type: cell-based; details: human PBMC, IL-15 final 41 ng/mL; read-out: PBMC IL15_pSTAT5_IC50
How it was run: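 Thawed human PBMC, rested in human plasma, were preincubated 15 min at 37 °C with compound (0.2% DMSO), then stimulated 15 min with IL-15 at 41 ng/mL final. After paraformaldehyde fixation and methanol permeabilisation, Alexa Fluor 647 anti-STAT5 staining overnight at 4 °C was analysed by flow cytometry on total lymphocytes.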

[2] = target: T1, JAK3 enzyme (Homo sapiens, UniProt P52333); assay: JAK Caliper Enzyme Assay at 1 mM ATP; type: biochemical
T1 sequence (P52333 1-1124): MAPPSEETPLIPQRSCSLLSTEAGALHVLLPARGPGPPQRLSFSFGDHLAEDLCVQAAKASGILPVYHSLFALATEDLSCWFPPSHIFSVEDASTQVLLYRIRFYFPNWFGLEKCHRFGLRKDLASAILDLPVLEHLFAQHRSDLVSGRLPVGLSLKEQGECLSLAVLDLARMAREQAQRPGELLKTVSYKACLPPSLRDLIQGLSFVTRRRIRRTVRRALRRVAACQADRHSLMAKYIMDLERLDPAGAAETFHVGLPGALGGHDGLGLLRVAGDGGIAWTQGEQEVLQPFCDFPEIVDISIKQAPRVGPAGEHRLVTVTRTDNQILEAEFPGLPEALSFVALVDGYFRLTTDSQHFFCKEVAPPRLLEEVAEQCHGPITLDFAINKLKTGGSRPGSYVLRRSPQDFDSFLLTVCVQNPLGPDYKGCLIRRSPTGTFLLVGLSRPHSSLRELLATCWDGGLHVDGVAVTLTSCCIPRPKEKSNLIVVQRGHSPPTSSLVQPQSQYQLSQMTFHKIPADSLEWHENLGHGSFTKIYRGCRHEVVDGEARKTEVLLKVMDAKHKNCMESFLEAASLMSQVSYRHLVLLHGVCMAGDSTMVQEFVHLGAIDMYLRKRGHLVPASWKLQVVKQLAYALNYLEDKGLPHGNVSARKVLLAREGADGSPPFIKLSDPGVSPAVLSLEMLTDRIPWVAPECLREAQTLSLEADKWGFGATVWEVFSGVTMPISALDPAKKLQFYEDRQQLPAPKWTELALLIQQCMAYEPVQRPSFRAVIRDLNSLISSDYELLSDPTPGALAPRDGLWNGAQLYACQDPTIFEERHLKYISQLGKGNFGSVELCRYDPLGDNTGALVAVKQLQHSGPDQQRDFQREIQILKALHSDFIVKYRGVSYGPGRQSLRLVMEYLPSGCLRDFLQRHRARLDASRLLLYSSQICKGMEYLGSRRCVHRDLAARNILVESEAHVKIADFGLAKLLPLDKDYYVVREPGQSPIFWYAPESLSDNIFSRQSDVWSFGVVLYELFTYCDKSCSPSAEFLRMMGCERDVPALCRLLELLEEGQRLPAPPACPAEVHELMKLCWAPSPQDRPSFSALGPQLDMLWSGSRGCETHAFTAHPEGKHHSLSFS
How it was run: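 Compound tested as 11-point half-log DMSO dilution series (top 600 μM in DMSO, a dilution-plate level). Enzyme level and time set for 20%-30% peptide phosphorylation; phosphorylated and unphosphorylated peptide separated and quantified by Caliper LC3000 mobility shift.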

Compound	IC50 [1]	IC50 [2]
C=CC(=O)N1CC[C@H](Nc2cnc3[nH]cc(C(=O)NCC)c3n2)C[C@H]1C (racemic) [Example 40, Trans-racemic-2-{[(2R,4S)-1-acryloyl-2-methylpiperidin-4-yl]amino}-N-ethyl-5H-pyrrolo[2,3-b]pyrazine-7-carboxamide]	134 nM	24 nM
C=CC(=O)N1CCC(Oc2cnc3[nH]cc(C(=O)NC(C)C4CC4)c3n2)CC1 (racemic) [Example 220, Racemic-2-[(1-acryloylpiperidin-4-yl)oxy]-N-(1-cyclopropylethyl)-5H-pyrrolo[2,3-b]pyrazine-7-carboxamide]	100 nM	18 nM
C=CC(=O)N1CC[C@@H](Oc2cnc3[nH]cc(C(=O)NCC)c3n2)C[C@@H]1C (single isomer, unassigned) [Example 79]	264 nM	77 nM
C=CC(=O)N1CCN(c2cnc3[nH]cc(C(=O)N[C@H]4CCO[C@H]4C)c3n2)CC1(C)C [Example 166, 3-({[2-(4-acryloyl-3,3-dimethylpiperazin-1-yl)-5H-pyrrolo[2,3-b]pyrazin-7-yl]carbonyl}amino)-2,5-anhydro-1,3,4-trideoxy-L-threo-pentitol]	168 nM	58 nM
C=CC(=O)N1CCC(Oc2cnc3[nH]cc(C(=O)NC(C)(C)CC)c3n2)CC1 [Example 209, 2-[(1-acryloylpiperidin-4-yl)oxy]-N-(2-methylbutan-2-yl)-5H-pyrrolo[2,3-b]pyrazine-7-carboxamide]	206 nM	64 nM
C=CC(=O)N1C[C@@H](CF)C[C@@H](Nc2ncnc3[nH]ccc23)C1 (single isomer, unassigned) [Example 103]	155 nM	38 nM
C=CC(=O)N1CCC[C@H](Nc2cnc3[nH]cc(C(=O)NCC)c3n2)C1 (single isomer, unassigned) [Example 36]	176 nM	54 nM
C=CC(=O)N1C[C@H](CN2CC[C@H](C#N)C2)C[C@H](Nc2ncnc3[nH]ccc23)C1 [Example 108, (S)-1-(((3S,5S)-5-((7H-pyrrolo[2,3-d]pyrimidin-4-yl)amino)-1-acryloylpiperidin-3-yl)methyl)pyrrolidine-3-carbonitrile]	3260 nM	136 nM
C=CC(=O)N1CC[C@H](Nc2cnc3[nH]cc(C(=O)NCC)c3n2)[C@H](OC)C1 [Example 326, 2-{[(3R,4S)-1-acryloyl-3-methoxypiperidin-4-yl]amino}-N-ethyl-5H-pyrrolo[2,3-b]pyrazine-7-carboxamide]	330 nM	50 nM
C=CC(=O)N1CCN(c2cnc3[nH]cc(C(=O)N[C@H](CC)CC#N)c3n2)C[C@@H]1CC(C)C [Example 314, 2-[(3S)-4-acryloyl-3-(2-methylpropyl)piperazin-1-yl]-N-[(2R)-1-cyanobutan-2-yl]-5H-pyrrolo[2,3-b]pyrazine-7-carboxamide]	115 nM	30 nM
C=CC(=O)N1CC[C@@H](Nc2cnc3[nH]cc(C(=O)NCC)c3n2)[C@@H](C)C1 (single isomer, unassigned) [Example 38]	205 nM	30 nM
C=CC(=O)N1C[C@H](COCCC#N)C[C@H](Nc2ncnc3[nH]ccc23)C1 [Example 101, 3-{[(3R,5S)-1-Acryloyl-5-(7H-pyrrolo[2,3-d]pyrimidin-4-ylamino)piperidin-3-yl]methoxy}propanenitrile]	227 nM	28 nM
C=CC(=O)N1CC[C@H](Nc2cnc3[nH]cc(C(=O)NCC4CCCC4)c3n2)[C@H](OC)C1 [Example 284, 2-{[(3R,4S)-1-acryloyl-3-methoxypiperidin-4-yl]amino}-N-(cyclopentylmethyl)-5H-pyrrolo[2,3-b]pyrazine-7-carboxamide]	186 nM	42 nM
C=CC(=O)N1CC[C@@H](Oc2cnc3[nH]cc(C(=O)N[C@@H](C)COC)c3n2)C[C@@H]1C (single isomer, unassigned) [Example 73]	174 nM	33 nM
C=CC(=O)N1CC[C@H](Nc2cnc3[nH]cc(C(=O)NCC)c3n2)C[C@H]1C (single isomer, unassigned) [Example 41]	147 nM	22 nM
C=CC(=O)N1CCC(Nc2cnc3[nH]cc(C(=O)NCc4cccc(F)c4)c3n2)CC1 [Example 176, 2-[(1-acryloylpiperidin-4-yl)amino]-N-(3-fluorobenzyl)-5H-pyrrolo[2,3-b]pyrazine-7-carboxamide]	24 nM	3 nM
C=CC(=O)N1CCC(Nc2cnc3[nH]cc(C(=O)NCc4ccc(F)cc4)c3n2)CC1 [Example 188, 2-[(1-acryloylpiperidin-4-yl)amino]-N-(4-fluorobenzyl)-5H-pyrrolo[2,3-b]pyrazine-7-carboxamide]	88 nM	6 nM
C=CC(=O)N1CCC(Oc2cnc3[nH]cc(C(=O)N[C@@H](C)COC)c3n2)CC1 [Example 228, 2-[(1-acryloylpiperidin-4-yl)oxy]-N-[(2S)-1-methoxypropan-2-yl]-5H-pyrrolo[2,3-b]pyrazine-7-carboxamide]	93.3 nM	18 nM
C=CC(=O)N1CC[C@@H](Nc2cnc3[nH]cc(C(=O)NCC)c3n2)[C@@H](C)C1 (racemic) [Example 37, Cis-racemic-2-{[(3S,4R)-1-acryloyl-3-methylpiperidin-4-yl]amino}-N-ethyl-5H-pyrrolo[2,3-b]pyrazine-7-carboxamide]	676 nM	51 nM
C=CC(=O)N1CCC(Nc2cnc3[nH]cc(C(=O)NCc4ccccc4)c3n2)CC1 [Example 187, 2-[(1-acryloylpiperidin-4-yl)amino]-N-benzyl-5H-pyrrolo[2,3-b]pyrazine-7-carboxamide]	54.7 nM	6 nM
C=CC(=O)N1CCN(c2cnc3[nH]cc(C(=O)N[C@@H](C)COC)c3n2)CC1(C)C [Example 298, 2-(4-acryloyl-3,3-dimethylpiperazin-1-yl)-N-[(2S)-1-methoxypropan-2-yl]-5H-pyrrolo[2,3-b]pyrazine-7-carboxamide]	210 nM	69 nM
C=CC(=O)N1CCC(Oc2cnc3[nH]cc(C(=O)N[C@H]4CC[C@@H](F)C4)c3n2)CC1 [Example 225, 2-[(1-acryloylpiperidin-4-yl)oxy]-N-[(1S,3R)-3-fluorocyclopentyl]-5H-pyrrolo[2,3-b]pyrazine-7-carboxamide]	170 nM	25 nM
C=CC(=O)N1CC[C@H](Nc2cnc3[nH]cc(C(=O)NCC(C)CC(F)(F)F)c3n2)[C@H](OC)C1 (mixture of isomers) [Example 328, Racemic-2-{[(3R,4S)-1-acryloyl-3-methoxypiperidin-4-yl]amino}-N-(4,4,4-trifluoro-2-methylbutyl)-5H-pyrrolo[2,3-b]pyrazine-7-carboxamide]	143 nM	37 nM
C=CC(=O)N1C[C@@H](CC#N)C[C@@H](Nc2ncnc3[nH]ccc23)C1 (racemic) [Example 105, Cis-racemic-[1-acryloyl-5-(7H-pyrrolo[2,3-d]pyrimidin-4-ylamino)piperidin-3-yl]acetonitrile]	324 nM	54 nM
C=CC(=O)N(C)C1CN(c2cnc3[nH]cc(C(=O)N[C@H](C)COC)c3n2)C1 [Example 86, 2-{3-[acryloyl(methyl)amino]azetidin-1-yl}-N-[(2R)-1-methoxypropan-2-yl]-5H-pyrrolo[2,3-b]pyrazine-7-carboxamide]	260 nM	94 nM
C=CC(=O)N1CC[C@@H](Oc2cnc3[nH]cc(C(=O)NCC)c3n2)C[C@@H]1C (racemic) [Example 77, Trans-racemic-2-{[1-acryloyl-2-methylpiperidin-4-yl]oxy}-N-ethyl-5H-pyrrolo[2,3-b]pyrazine-7-carboxamide]	561 nM	115 nM
C=CC(=O)N1CC[C@@H](Nc2cnc3[nH]cc(C(=O)NCC)c3n2)C[C@@H]1C (single isomer, unassigned) [Example 42]	357 nM	50 nM
